Results on 22 compounds are retold here after patent US10428017B2, “Modulators of the cystic fibrosis transmembrane conductance regulator protein and methods of use” (AbbVie S.à.r.l., priority 2017, dated 2019).

For this assay, the target named is T1, F508delCFTR (Homo sapiens, UniProt P13569, DEL508-508).
T1 construct: expressed in transfected cells; host or cells: CFBE4lo-F508delCFTR-HRP cells (human lung derived epithelial cell line, doxycycline-inducible)
Description: Cell Surface Expression-Horse Radish Peroxidase (CSE-HRP) Assay. Format: cell-based. Conditions: for EC50: CFBE4lo-F508delCFTR-HRP cells, 18-24 hours at 33° C.; for Emax / Maximum % activity (with co-corrector): maximum at any tested concentration (up to 20 μM), normalized to on-plate positive control (2 μM co-corrector); for Maximum % activity (with co-corrector): with co-corrector 2 μM. The method in brief: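 Surface F508delCFTR measured via exofacial-loop HRP luminescence (luminol) in doxycycline-induced (0.5 μg/mL, 72 h) CFBE4lo− cells. Compounds, 20 μM top, 3-fold, 8 concentrations, ±2 μM co-corrector, incubated 18-24 h at 33° C; EC50 by variable-slope sigmoidal fit of % activity relative to positive control, three replicate plates.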

[1] abbreviates: test compound without co-corrector, HRP luminescence readout, read-out: EC50 (without co-corrector).
Where [2] appears, read: test compound without co-corrector.
[3] abbreviates: with co-corrector 2 μM 3-[(2R,4R)-4-({[1-(2,2-difluoro-1,3-benzodioxol-5-yl)cyclopropyl]carbonyl}amino)-7-methoxy-3,4-dihydro-2H-chromen-2-yl]benzoic acid, read-out: EC50 (with co-corrector).

Structures are written as SMILES. Where two headings read alike, the source gives them in different places.

T1 sequence (P13569 with tags, fused parts or gaps DEL508-508): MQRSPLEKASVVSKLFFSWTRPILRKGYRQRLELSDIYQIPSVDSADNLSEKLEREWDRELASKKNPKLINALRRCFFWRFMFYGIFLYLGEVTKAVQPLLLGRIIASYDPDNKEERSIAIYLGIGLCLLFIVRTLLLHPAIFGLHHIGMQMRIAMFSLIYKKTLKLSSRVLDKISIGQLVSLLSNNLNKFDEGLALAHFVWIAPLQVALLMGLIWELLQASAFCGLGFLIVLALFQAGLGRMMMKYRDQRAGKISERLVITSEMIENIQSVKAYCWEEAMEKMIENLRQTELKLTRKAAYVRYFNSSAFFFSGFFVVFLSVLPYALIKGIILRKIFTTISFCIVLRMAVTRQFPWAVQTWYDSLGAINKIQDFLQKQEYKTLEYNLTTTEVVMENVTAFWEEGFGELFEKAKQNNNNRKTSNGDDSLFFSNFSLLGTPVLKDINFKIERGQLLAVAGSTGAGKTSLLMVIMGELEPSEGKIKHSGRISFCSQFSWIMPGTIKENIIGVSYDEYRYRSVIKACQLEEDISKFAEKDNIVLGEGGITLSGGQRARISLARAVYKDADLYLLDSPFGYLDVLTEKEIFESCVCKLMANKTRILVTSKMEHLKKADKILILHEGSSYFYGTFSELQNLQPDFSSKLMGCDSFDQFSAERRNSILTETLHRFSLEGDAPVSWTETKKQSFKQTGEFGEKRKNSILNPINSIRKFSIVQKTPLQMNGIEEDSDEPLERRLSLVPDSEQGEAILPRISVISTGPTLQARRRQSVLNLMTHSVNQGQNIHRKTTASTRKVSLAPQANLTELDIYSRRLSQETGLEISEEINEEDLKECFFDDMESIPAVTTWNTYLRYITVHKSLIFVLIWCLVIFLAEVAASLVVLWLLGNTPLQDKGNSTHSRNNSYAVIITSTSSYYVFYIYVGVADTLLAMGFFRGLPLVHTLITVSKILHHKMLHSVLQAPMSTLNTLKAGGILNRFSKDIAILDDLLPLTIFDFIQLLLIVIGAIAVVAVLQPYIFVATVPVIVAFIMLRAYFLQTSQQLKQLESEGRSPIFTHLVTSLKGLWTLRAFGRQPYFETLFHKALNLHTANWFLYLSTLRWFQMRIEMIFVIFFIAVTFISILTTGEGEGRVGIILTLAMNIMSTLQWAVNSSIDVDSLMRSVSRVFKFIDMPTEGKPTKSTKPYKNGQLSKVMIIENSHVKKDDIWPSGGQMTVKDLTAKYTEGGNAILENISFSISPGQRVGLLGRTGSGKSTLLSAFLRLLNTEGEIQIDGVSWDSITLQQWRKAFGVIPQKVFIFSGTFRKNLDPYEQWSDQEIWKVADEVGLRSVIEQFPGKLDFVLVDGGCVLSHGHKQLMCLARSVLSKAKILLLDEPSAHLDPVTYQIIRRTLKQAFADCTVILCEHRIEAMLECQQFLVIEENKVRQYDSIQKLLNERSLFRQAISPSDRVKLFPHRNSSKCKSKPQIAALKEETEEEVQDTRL

For `COc1ccc(Br)c2c1C(C(=O)NS(=O)(=O)c1cccc3ccccc13)CC1(CCCCC1)O2` (stereo not shown) [Example 41, 8-bromo-5-methoxy-N-(naphthalene-1-sulfonyl)-3,4-dihydrospiro[1-benzopyran-2,1′-cyclohexane]-4-carboxamide], the “Maximum % activity (with co-corrector)” value was “+++ (≥350)”. Besides, the EC50 under setting [1] is less than 3 µM. Under setting [2], this compound showed an Emax of no less than 150%. The EC50 under setting [3] is less than 3 µM.

Turning to `COc1ccc(Br)c2c1C(C(=O)NS(=O)(=O)c1cccc3cccnc13)CCO2` (stereo not shown) [Example 42, 8-bromo-5-methoxy-N-(quinoline-8-sulfonyl)-3,4-dihydro-2H-1-benzopyran-4-carboxamide], the “Maximum % activity (with co-corrector)” value is “+++ (≥350)”. Further, the EC50 under setting [1] fell in the range of 3 to 10 µM. The same compound returned an Emax under setting [2] of 50 to 150%. The EC50 under setting [3] was less than 3 µM.

For the compound `O=C(NS(=O)(=O)c1cccc2ccccc12)C1COc2c(Cl)cccc21` (stereo not shown) [Example 43, 7-chloro-N-(naphthalene-1-sulfonyl)-2,3-dihydro-1-benzofuran-3-carboxamide], the “Maximum % activity (with co-corrector)” value is “++ (≥150 and <350)”. The EC50 under setting [1] is 3 to 10 µM. Under setting [2], this compound yielded an Emax of less than 50%. For the same compound, under setting [3], the EC50 lay in the range of 3 to 10 µM.

With `CCC1(C(=O)NS(=O)(=O)c2cccc3ccccc23)COc2c(Cl)cccc21` (stereo not shown) [Example 44, 7-chloro-3-ethyl-N-(naphthalene-1-sulfonyl)-2,3-dihydro-1-benzofuran-3-carboxamide], the “Maximum % activity (with co-corrector)” value is reported as “+++ (≥350)”. Under setting [1], the EC50 was in the range of 3 to 10 µM. This compound also displayed an Emax under setting [2] of 50 to 150%. Under setting [3], the EC50 lay within 3 to 10 µM.

For `O=C(NS(=O)(=O)c1cccc2ccccc12)C1COc2c1cccc2C(F)(F)F` (stereo not shown) [Example 45, N-(naphthalene-1-sulfonyl)-7-(trifluoromethyl)-2,3-dihydro-1-benzofuran-3-carboxamide], the “Maximum % activity (with co-corrector)” value is “++ (≥150 and <350)”. The EC50 under setting [1] is 3 to 10 µM. Besides, the Emax under setting [2] was 50 to 150%. Under setting [3], the EC50 is 3 to 10 µM.

For `COc1ccc(Br)c2c1C(C(=O)NS(=O)(=O)c1cccc3ncccc13)CC(C)(C)O2` (stereo not shown) [Example 46, 8-bromo-5-methoxy-2,2-dimethyl-N-(quinoline-5-sulfonyl)-3,4-dihydro-2H-1-benzopyran-4-carboxamide], the “Maximum % activity (with co-corrector)” value is “+++ (≥350)”. For the same compound, under setting [1], the EC50 is less than 3 µM. In addition, the Emax under setting [2] was no less than 150%. For the same compound, under setting [3], the EC50 was less than 3 µM.

In the case of `COc1cccc2c1C(C(=O)NS(=O)(=O)c1cccc3cccnc13)CC(C)(C)O2` (stereo not shown) [Example 47, 5-methoxy-2,2-dimethyl-N-(quinoline-8-sulfonyl)-3,4-dihydro-2H-1-benzopyran-4-carboxamide], the “Maximum % activity (with co-corrector)” value is “++ (≥150 and <350)”. The EC50 under setting [1] fell in the range of 3 to 10 µM. Under setting [2], this compound displayed an Emax of less than 50%. Besides, the EC50 under setting [3] was 3 to 10 µM.

For the compound `COc1cccc2c1C(C(=O)NS(=O)(=O)c1cccc3ncccc13)CC(C)(C)O2` (stereo not shown) [Example 48, 5-methoxy-2,2-dimethyl-N-(quinoline-5-sulfonyl)-3,4-dihydro-2H-1-benzopyran-4-carboxamide], the “Maximum % activity (with co-corrector)” value was “+++ (≥350)”. Also, the half-maximal effective concentration (EC50) under setting [1] is 3 to 10 µM. The compound also gave an Emax under setting [2] of no less than 150%. Further, the EC50 under setting [3] is 3 to 10 µM.

In the case of `COc1cccc2c1C(C(=O)NS(=O)(=O)c1cccc3ccccc13)CC(C)(C)O2` (stereo not shown) [Example 49, 5-methoxy-2,2-dimethyl-N-(naphthalene-1-sulfonyl)-3,4-dihydro-2H-1-benzopyran-4-carboxamide], the “Maximum % activity (with co-corrector)” value is recorded as “+++ (≥350)”. Further, the EC50 under setting [1] fell in the range of 3 to 10 µM. Under setting [2], the maximal response (Emax) was no less than 150%. For the same compound, under setting [3], the EC50 was less than 3 µM.

In the case of `COc1ccc(C#N)c2c1C(C(=O)NS(=O)(=O)c1cccc3ccccc13)CC(C)(C)O2` (stereo not shown) [Example 50, 8-cyano-5-methoxy-2,2-dimethyl-N-(naphthalene-1-sulfonyl)-3,4-dihydro-2H-1-benzopyran-4-carboxamide], the “Maximum % activity (with co-corrector)” value is on record as “+++ (≥350)”. Besides, under setting [1], the EC50 lay in the range of 3 to 10 µM. This compound yielded a maximal response (Emax) under setting [2] of 50 to 150%. Also, under setting [3], the EC50 was less than 3 µM.

`COc1ccc(Cl)c2c1C(C(=O)NS(=O)(=O)c1cccc3ccccc13)CC(C)(C)O2` (stereo not shown) [Example 51, 8-chloro-5-methoxy-2,2-dimethyl-N-(naphthalene-1-sulfonyl)-3,4-dihydro-2H-1-benzopyran-4-carboxamide]: the “Maximum % activity (with co-corrector)” value is “+++ (≥350)”. The EC50 under setting [1] is less than 3 µM. The maximum response (Emax) under setting [2] was no less than 150%. In addition, the EC50 under setting [3] was less than 3 µM.

Turning to `COc1ccc(Br)c2c1C(C(=O)NS(=O)(=O)c1cccc3ccccc13)CC(C)(C)O2` (stereo not shown) [Example 52, 8-bromo-5-methoxy-2,2-dimethyl-N-(naphthalene-1-sulfonyl)-3,4-dihydro-2H-1-benzopyran-4-carboxamide], the “Maximum % activity (with co-corrector)” value is on record as “+++ (≥350)”. Besides, the EC50 under setting [1] was less than 3 µM. Under setting [2], this compound yielded an Emax of no less than 150%. For the same compound, the EC50 under setting [3] was less than 3 µM.

Turning to `COc1ccc(C(F)(F)F)c2c1C(C(=O)NS(=O)(=O)c1cccc3ccccc13)CCO2` (stereo not shown) [Example 53, 5-methoxy-N-(naphthalene-1-sulfonyl)-8-(trifluoromethyl)-3,4-dihydro-2H-1-benzopyran-4-carboxamide], the “Maximum % activity (with co-corrector)” value was “+++ (≥350)”. Besides, the 50% effective concentration (EC50) under setting [1] is less than 3 µM. Under setting [2], the Emax was no less than 150%. For the same compound, the EC50 under setting [3] was less than 3 µM.

In the case of `COc1ccc(C2CCC2)c2c1C(C(=O)NS(=O)(=O)c1cccc3ncccc13)CCO2` (stereo not shown) [Example 54, 8-cyclobutyl-5-methoxy-N-(quinoline-5-sulfonyl)-3,4-dihydro-2H-1-benzopyran-4-carboxamide], the “Maximum % activity (with co-corrector)” value is recorded as “+++ (≥350)”. The EC50 under setting [1] was 3 to 10 µM. Under setting [2], this compound yielded an Emax of no less than 150%. For the same compound, the EC50 under setting [3] was less than 3 µM.

With `COc1ccc(C2CCC2)c2c1[C@@H](C(=O)NS(=O)(=O)c1cccc3ccccc13)CCO2` [Example 55, (4S)-8-cyclobutyl-5-methoxy-N-(naphthalene-1-sulfonyl)-3,4-dihydro-2H-1-benzopyran-4-carboxamide], the “Maximum % activity (with co-corrector)” value was “+++ (≥350)”. Moreover, under setting [1], the EC50 fell in the range of 3 to 10 µM. The compound further showed an Emax under setting [2] of no less than 150%. Also, the EC50 under setting [3] lay within 3 to 10 µM.

Turning to `COc1ccc(C2CCC2)c2c1[C@H](C(=O)NS(=O)(=O)c1cccc3ccccc13)CCO2` [Example 56, (4R)-8-cyclobutyl-5-methoxy-N-(naphthalene-1-sulfonyl)-3,4-dihydro-2H-1-benzopyran-4-carboxamide], the “Maximum % activity (with co-corrector)” value was “+++ (≥350)”. Moreover, the EC50 under setting [1] is less than 3 µM. The Emax under setting [2] is no less than 150%. Under setting [3], the EC50 is less than 3 µM.

Consider `COc1ccc(C(F)(F)F)c2c1[C@@H](C(=O)NS(=O)(=O)c1cccc3ccccc13)CCO2` [Example 57, (4S)-5-methoxy-N-(naphthalene-1-sulfonyl)-8-(trifluoromethyl)-3,4-dihydro-2H-1-benzopyran-4-carboxamide], for which the “Maximum % activity (with co-corrector)” value is “+++ (≥350)”. Besides, under setting [1], the EC50 was in the range of 3 to 10 µM. For the same compound, the Emax under setting [2] is no less than 150%. The EC50 under setting [3] is less than 3 µM.

Consider `COc1ccc(C(F)(F)F)c2c1[C@H](C(=O)NS(=O)(=O)c1cccc3ccccc13)CCO2` [Example 58, (4R)-5-methoxy-N-(naphthalene-1-sulfonyl)-8-(trifluoromethyl)-3,4-dihydro-2H-1-benzopyran-4-carboxamide], for which the “Maximum % activity (with co-corrector)” value is given as “+++ (≥350)”. For the same compound, the EC50 under setting [1] is less than 3 µM. Under setting [2], the Emax is no less than 150%. Further, the EC50 under setting [3] was less than 3 µM.

As to `COc1ccc(C2CCC2)c2c1[C@@H](C(=O)NS(=O)(=O)c1cccc3ncccc13)CCO2` [Example 59, (4S)-8-cyclobutyl-5-methoxy-N-(quinoline-5-sulfonyl)-3,4-dihydro-2H-1-benzopyran-4-carboxamide], the “Maximum % activity (with co-corrector)” value is “+++ (≥350)”. The EC50 under setting [1] lay within 3 to 10 µM. Under setting [2], this compound came in with an Emax of no less than 150%. Moreover, the concentration giving a half-maximal response (EC50) under setting [3] was in the range of 3 to 10 µM.

Turning to `COc1ccc(C2CCC2)c2c1[C@H](C(=O)NS(=O)(=O)c1cccc3ncccc13)CCO2` [Example 60, (4R)-8-cyclobutyl-5-methoxy-N-(quinoline-5-sulfonyl)-3,4-dihydro-2H-1-benzopyran-4-carboxamide], the “Maximum % activity (with co-corrector)” value is reported as “+++ (≥350)”. The EC50 under setting [1] was less than 3 µM. The Emax under setting [2] is no less than 150%. For the same compound, under setting [3], the EC50 was less than 3 µM.

Regarding `CCC1(C(=O)NS(=O)(=O)c2cccc3ccccc23)COc2c(C(F)(F)F)cccc21` (stereo not shown) [Example 61, 3-ethyl-N-(naphthalene-1-sulfonyl)-7-(trifluoromethyl)-2,3-dihydro-1-benzofuran-3-carboxamide], the “Maximum % activity (with co-corrector)” value is listed as “+++ (≥350)”. Under setting [1], the EC50 lay in the range of 3 to 10 µM. Moreover, under setting [2], the Emax is no less than 150%. Also, the EC50 under setting [3] lay within 3 to 10 µM.

For the compound `COc1ccc(OC)c2c1OCC2C(=O)NS(=O)(=O)c1cccc2ccccc12` (stereo not shown) [Example 62, 4,7-dimethoxy-N-(naphthalene-1-sulfonyl)-2,3-dihydro-1-benzofuran-3-carboxamide], the “Maximum % activity (with co-corrector)” value was “+++ (≥350)”. Moreover, under setting [1], the EC50 was 3 to 10 µM. Further, the Emax under setting [2] was no less than 150%. Also, the EC50 under setting [3] was in the range of 3 to 10 µM.

As a reminder, the EC50 is the concentration that produces a half-maximal response. For orientation: Emax means the greatest response seen or fitted, relative to the assay's reference.
